Assay results taken from patent US11020378B2, “Compounds, compositions and methods for treating insulin resistance” (UNIVERSITE PARIS DESCARTES, priority 2017, dated 2021).

What was measured:
IRTK-Grb14 interaction = molecular target: T1, IRTK-Grb14 interaction (Homo sapiens, UniProt P06213); assay: Co-immunoprecipitation of IRTK48-RLuc with Grb14-YFP in co-transfected HEK 293T cells; type: cell-based; details: 50 μM; 4 hours; no insulin
T1 construct: a construct bearing only the tyrosine kinase domain of the luciferase-fused receptor (IRTK48-RLuc); expressed in transfected cells; host or cells: HEK 293T
Procedure: HEK 293T cells co-transfected with a construct bearing only the tyrosine kinase domain of the luciferase-fused receptor (IRTK48-RLuc) and the Grb14 protein fused to YFP were incubated for 4 hours in the presence of compounds according to the invention. In the absence of α subunits, the tyrosine kinase domain of the insulin receptor spontaneously autophosphorylates, so it is not necessary to add insulin to stimulate the IRTK-Grb14 interaction.

IRTK-Grb10 interaction = molecular target: T2, IRTK-Grb10 interaction (Homo sapiens, UniProt P06213); assay: Co-immunoprecipitation of IRTK48-RLuc with Grb10-YFP in co-transfected HEK 293T cells; type: cell-based; details: same experiment as with Grb14
T2 construct: a construct bearing only the tyrosine kinase domain of the luciferase-fused receptor and the Grb10 protein fused to YFP; expressed in transfected cells; host or cells: HEK 293T
Procedure: In order to test the specificity of the compound of Formula (Ia) on this IRTK-Grb14 interaction, the same experiment was conducted with HEK 293T cells co-transfected with a construct bearing only the tyrosine kinase domain of the luciferase-fused receptor and the Grb10 protein fused to YFP. Indeed, the Grb10 protein also binds to the phosphorylated insulin receptor and inhibits its catalytic activity.

[1] = test system: SREBP-1c, ACC, FAS and SCD1 expression; assay: Expression of lipogenesis genes in hepatocytes in primary culture (RT-qPCR); type: cell-based, mouse; details: condition G25i (25 mM glucose, 10 nM insulin), 24 h
Procedure: FIG. 7, the effect of the compound of Formula (Ia) according to the invention (black bars) on the expression of insulin target genes, SREBP-1c, ACC, FAS, and SCD1 (FIGS. 7A-D, respectively) involved in the lipogenesis pathway. Hepatocytes in primary culture are cultured in the presence of 5 mM glucose (G5) or 25 mM glucose (G25) and 10 nM insulin for 24 h. The relative quantification of mRNAs is performed by RT-qPCR. The values are related to the quantification of the 18S gene in the same sample in order to normalize the results. The results are the average of 3 to 5 independent experiments (*p<0.05 by Anova followed by a Newman-Keuls test).
Briefly, mouse hepatocytes in primary culture are cultured in the presence of 5 mM glucose (G5) or 25 mM glucose (G25), and 10 nM insulin for 24 h. The relative quantification of mRNAs is performed by RT-qPCR and the values are related to the quantification of the 18S gene from the same sample in order to normalize the results.

[2] = Repeat-dose toxicity study in C57Bl/6J mice; type: in vivo
Procedure: A repeat-dose toxicity study was also conducted in C57Bl/6J mice (12 males, 8 weeks old). Mice were treated daily either by gavage with 30 mg/kg/day of compound of Formula (Ia) diluted in 0.5% carboxymethylcellulose; or by intraperitoneal injection with 30 mg/kg/day of compound of Formula (Ia) diluted in DMSO, or with DMSO alone, for a period of 15 days.

IR-Grb14 interaction [3] = molecular target: T3, IR-Grb14 interaction (Homo sapiens, UniProt P06213); assay: IR-Luc/Grb14-YFP BRET technique in a cell-free system; type: binding
T3 construct: a vector encoding the insulin receptor fused to the luciferase (IR-Luc); made in house; host or cells: HEK293T (transfected); IR-Luc was partially purified on wheat germ lectin sepharose; Grb14-YFP was used as crude lysate
Procedure: Compounds according to the invention were experimentally assessed for their inhibitory effect on the IR-Grb14 interaction by a BRET technique in a cell-free system described briefly below.
On the one hand, HEK293T cells were transfected with a vector encoding the insulin receptor fused to the luciferase (IR-Luc). Before lysis, the cells transfected with IR-Luc were stimulated or not with 100 nM insulin for 10 minutes. The IR-Luc lysates were recovered and then purified on sepharose beads coupled with wheat germ lectin (WGL for Wheat Germ Lectin). The IR-Luc receptors were then eluted and then frozen in liquid nitrogen before being stored at −80° C. On the other hand, HEK293T cells were transfected either with a vector encoding the Grb14 protein fused to the YFP (Grb14-YFP), or with the empty plasmid pcDNA3. The cells transfected with Grb14-YFP or with the empty plasmid pcDNA3 were lysed 48 h after transfection. After centrifugation, the lysates are recovered and frozen at −80° C.
The insulin receptors (IR-Luc) partially purified from cells stimulated or not with insulin were incubated for 20 minutes with the inhibitor compounds according to the invention suspended in DMSO. The cellular extracts from cells transfected with Grb14-YFP (or the empty plasmid pcDNA3) were then added and then after 40 minutes of incubation, coelenterazine was added and BRET reading was initiated. The results are expressed as a percentage of the BRET signal obtained in the presence of the molecules tested compared to the BRET signal of the DMSO control.

PI3K/Akt pathway = assay: Luc-Akt-PH/YFP-membrane BRET in HEK293T cells (recruitment of Akt to the membrane); type: cell-based; details: for BRET delta (recruitment of the Akt protein to the membrane): 50 μM
Description: To measure the activity of the PI3-kinase pathway by the BRET technique, HEK293T cells are transfected with plasmids allowing, on the one hand, the expression of the PH (Pleckstrin Homology) domain of the Akt protein which has been fused to the luciferase and, on the other hand, a membrane-addressing sequence which has been fused to the YFP protein. When the PH domain of Akt is recruited to the membrane by the PIP3s, an energy transfer between the luciferase that is coupled to the PH domain of Akt and the membrane YFP protein takes place. The measured BRET signal is a control of the production of PIP3s at the membrane and is a reflection of the activation of the PI-3-kinase/Akt pathway in real time on cells.

IR-Grb14 interaction [4] = molecular target: T3, IR-Grb14 interaction; assay: Co-immunoprecipitation of IR-Luc with Grb14-YFP in a cell-free system (Western blot); type: binding; details: for reduction of the amount of co-precipitated IR-Luc: dose series, results not shown
Procedure: The inhibitory effect of the compounds according to the invention on the IR-Grb14 interaction has been confirmed in co-immunoprecipitation experiments in a cell-free system. IR-Luc extracts, stimulated or not by insulin, […] before being incubated with the cellular extract containing the fusion protein Grb14-YFP for 40 minutes. Immunoprecipitation against YFP allows to analyze by Western blot the amount of receptor that has remained associated with the Grb14 protein.

[5] = absence of insulin, results not shown

T3 sequence (P06213 763-1382 limits assumed): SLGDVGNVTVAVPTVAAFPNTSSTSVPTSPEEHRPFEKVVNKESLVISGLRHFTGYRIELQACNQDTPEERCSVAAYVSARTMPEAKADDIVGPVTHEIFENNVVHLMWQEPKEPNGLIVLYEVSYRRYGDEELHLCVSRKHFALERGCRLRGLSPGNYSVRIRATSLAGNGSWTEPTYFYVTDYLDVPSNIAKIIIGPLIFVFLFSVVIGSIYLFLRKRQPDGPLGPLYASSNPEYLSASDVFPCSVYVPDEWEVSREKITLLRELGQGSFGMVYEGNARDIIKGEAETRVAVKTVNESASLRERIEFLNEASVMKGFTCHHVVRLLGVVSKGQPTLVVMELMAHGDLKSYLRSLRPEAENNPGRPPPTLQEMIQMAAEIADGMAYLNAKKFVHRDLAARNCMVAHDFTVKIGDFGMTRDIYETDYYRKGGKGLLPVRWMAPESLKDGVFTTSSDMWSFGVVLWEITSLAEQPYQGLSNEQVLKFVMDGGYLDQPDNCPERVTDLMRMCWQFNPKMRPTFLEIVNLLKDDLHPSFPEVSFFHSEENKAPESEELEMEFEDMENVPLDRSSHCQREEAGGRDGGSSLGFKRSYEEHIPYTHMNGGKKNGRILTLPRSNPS
T3 sequence (P06213 28-758 partner limits assumed): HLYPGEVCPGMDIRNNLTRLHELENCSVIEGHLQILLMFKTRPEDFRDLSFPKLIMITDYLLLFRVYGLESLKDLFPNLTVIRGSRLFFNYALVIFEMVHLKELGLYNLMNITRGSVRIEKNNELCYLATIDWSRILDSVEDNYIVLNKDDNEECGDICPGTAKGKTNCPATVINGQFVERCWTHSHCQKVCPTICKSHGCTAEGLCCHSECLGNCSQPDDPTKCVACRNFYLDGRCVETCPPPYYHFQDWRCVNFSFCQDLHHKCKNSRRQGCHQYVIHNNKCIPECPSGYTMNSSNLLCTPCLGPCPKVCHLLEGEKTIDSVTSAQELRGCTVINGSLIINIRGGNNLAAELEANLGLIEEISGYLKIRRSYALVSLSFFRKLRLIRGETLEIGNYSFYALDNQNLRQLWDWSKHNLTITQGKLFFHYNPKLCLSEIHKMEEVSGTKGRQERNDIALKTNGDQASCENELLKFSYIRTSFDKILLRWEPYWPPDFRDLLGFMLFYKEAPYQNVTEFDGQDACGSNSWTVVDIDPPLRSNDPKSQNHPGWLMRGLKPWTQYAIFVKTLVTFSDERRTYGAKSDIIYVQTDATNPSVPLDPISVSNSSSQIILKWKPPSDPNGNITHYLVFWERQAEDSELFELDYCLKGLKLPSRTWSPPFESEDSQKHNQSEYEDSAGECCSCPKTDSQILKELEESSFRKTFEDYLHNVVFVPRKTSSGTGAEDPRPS
T2 sequence (P06213 1023-1298 limits assumed): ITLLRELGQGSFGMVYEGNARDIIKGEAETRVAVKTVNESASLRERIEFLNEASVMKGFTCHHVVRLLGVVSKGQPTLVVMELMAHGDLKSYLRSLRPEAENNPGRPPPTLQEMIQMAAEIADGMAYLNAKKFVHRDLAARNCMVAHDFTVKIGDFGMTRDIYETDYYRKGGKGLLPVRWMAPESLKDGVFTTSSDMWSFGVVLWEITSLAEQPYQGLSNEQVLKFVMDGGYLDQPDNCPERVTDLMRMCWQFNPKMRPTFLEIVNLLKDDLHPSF
T1 sequence (P06213 1023-1298 limits assumed): as above

Cc1ccc(/C=C/C(=O)Nc2ccc(S(=O)(=O)Nc3onc(C)c3C)cc2)o1 [Ia]
reduction of the amount of tyrosine kinase domain of the insulin receptor co-immunoprecipitated with the Grb14 protein (IRTK-Grb14 interaction): 75% | amounts of tyrosine kinase domain of the insulin receptor co-immunoprecipitated with the Grb10 protein (IRTK-Grb10 interaction): does not change | increase of the effect of insulin on the expression of ACC [1]: about 60% | increase of the effect of insulin on the expression of FAS [1]: about 60% | increase of the effect of insulin on the expression of SCD1 [1]: about 60% | increase of the effect of insulin on the expression of SREBP-1c [1]: about 60% | liver appearance ([2]; 30 mg/kg/day by gavage or intraperitoneal injection): no difference | weight gain ([2]; 30 mg/kg/day by gavage or intraperitoneal injection, after 12 days of treatment): no difference | blood glucose level measured in the post-absorptive state ([2]; 30 mg/kg/day, regardless of the administration mode): decrease | toxic effect (overall conclusion) ([2]; HEK293T cells and repeat-dose mouse study): no detectable toxic effect | remaining activity at 50 µM (IR-Grb14 interaction [3]; 50 μM, insulin stimulation (100 nM), read-out: % BRET signal/DMSO control): 39% | decrease in the BRET signal between the insulin receptor and the Grb14 protein (IR-Grb14 interaction [3]; 50 μM, with insulin stimulation): 60% | decrease in the BRET signal (IR-Grb14 interaction [3]; in the absence of stimulation with insulin): 50% | BRET delta (recruitment of the Akt protein to the membrane) (PI3K/Akt pathway; absence of insulin): about 86 | BRET delta (recruitment of the Akt protein to the membrane) (PI3K/Akt pathway; presence of 5 nM insulin): about 121 | concentration at which the increase in the BRET signal / PI3K/Akt activation is significant (PI3K/Akt pathway; [5]): 10 µM | concentration from which the effect on the BRET signal is detectable (PI3K/Akt pathway; [5]): 5 µM | effect on the recruitment of the Akt protein to the membrane after AG1024 (PI3K/Akt pathway; cells pre-incubated 1 h with 25 μM AG1024, Ia 50 μM, insulin 5 nM): no longer have any effect | BRET delta (PI3K/Akt pathway; without insulin): 86 (+/−41) | reduction of the amount of co-precipitated IR-Luc (IR-Grb14 interaction [4]; 25 μM): 20% | reduction of the amount of co-precipitated IR-Luc (IR-Grb14 interaction [4]; 50 μM): 50% | inhibition at 50 µM (IR-Grb14 interaction [4]; 50 μM, in the presence of insulin, read-out: reduction of the amount of insulin receptors associated with the Grb14 protein): 60%
